Assay results: patent US20150216870A1, “Combination of PI3K Inhibitor and C-Met Inhibitor” (Novartis AG, priority 2012, published 2015)
Entries after “also recorded” stand apart in the source; their conditions may differ.

What was measured:
NCI-H1573 = assay: Cell viability (CellTiterGlo) combination dose matrix in NCI-H1573; assay type: cell-based, human; conditions: combination with c-Met inhibitor, 72 h, excluding highest concentration
Experimental: (§3) Compound stocks of both compounds are individually prepared in DMSO. Compounds are serially diluted using a Tecan dispenser to cover a ˜1000× range of concentrations. […] Both single agent and combinations are tested at multiple concentrations, along with controls and one self-cross.
(§4) The cell lines used in this study are purchased from American Type Cell Collection, including human non small cell lung cancer cell lines EBC-1 (which bears c-Met amplification), NCI-H1993 (which bears c-MET amplified), NCI-H1648 (which bears c-Met amplification), NCI-H1573 (which bears c-Met amplification and KRAS mutation) and HCC2935 (EGFR mutation). All cell lines are maintained in their respective culture medium as specified by the provider.
(§5) For the assessment of combination effects, cells are seeded into 384-well plates at 500 cells/well and incubated overnight. […]
(§6) Effects of single agents as well as their combination on cell viability is assessed after 72 hours of incubation at 37° C./5% CO2 by quantification of cellular ATP levels (CellTiterGlo, Promega) using 25 μL reagent/well and n=2 replicate plates per condition. The number/viability of cells at time of compound addition is likewise assessed and used to estimate the population doubling time of a cell line.
(§7) For untreated and treated levels U and T, inhibition is calculated using the formula I=1−T/U, which ranges from 0% to 100% for complete inhibition. […]
(§8) The Loewe expectation [Loewe S., Ergebn Physiol 27: 47-187 (1928)) is calculated at each dose pair CX,Y by finding the inhibition ILoewe such that (CX/ICX)+(CY/ICY)=1, and ICX,Y are the effective concentrations at ILoewe for the fitted single agent curves, using numerical optimization [Berenbaum M C, J Theor Biol 114: 413-431 (1985)]. The “synergy score” S is calculated by averaging the difference between Idata and ILoewe across all the tested combination dose points, excluding the highest concentration point in the dose matrix, which is most likely to be dominated by drug off-target effects. […]

EBC-1 = assay: Cell viability (CellTiterGlo) combination dose matrix in EBC-1; assay type: cell-based, human; conditions: combination with c-Met inhibitor, 72 h, excluding highest concentration, 0 no inhibition, 1 = 100% inhibition/stasis, 2 = cell death
Experimental: as §3, §4, §5, §6, §7, §8

HCC2935 = assay: Cell viability (CellTiterGlo) combination dose matrix in HCC2935; assay type: cell-based, human; conditions: combination with c-Met inhibitor, 72 h, excluding highest concentration
Experimental: as §3, §4, §5, §6, §7, §8

NCI-H1993 = assay: Cell viability (CellTiterGlo) combination dose matrix in NCI-H1993; assay type: cell-based, human; conditions: combination with c-Met inhibitor, 72 h, excluding highest concentration
Experimental: as §3, §4, §5, §6, §7, §8

NCI-H1648 = assay: Cell viability (CellTiterGlo) combination dose matrix in NCI-H1648; assay type: cell-based, human; conditions: combination with c-Met inhibitor, 72 h, excluding highest concentration
Experimental: as §3, §4, §5, §6, §7, §8

[1] = Toxicity (body weight, deaths) in NCI-H1993 xenograft study; assay type: in vivo; conditions: COMPOUND D 30 mg/kg p.o. qd to end
Experimental: (§1) Animals are weighed on Days 1-5, on each treatment day (except weekends), and twice weekly thereafter, until the end of the study. The maximum group mean body weight (BW) loss is determined for the interval between D1 and D20 as well as for the entire study. Group mean BW nadir determinations exclude measurements taken after more than 50% of the assessable mice in the group have exited the study, and also exclude any animal that was classified as a non-treatment related (NTR) death during the study. Acceptable toxicity for the maximum tolerated dose (MTD) is defined as a group mean BW loss of less than 15% during the test, and not more than one TR death among ten animals. Any animal with BW losses exceeding 15% for three consecutive measurements, or with a BW loss exceeding 20% for one measurement, are euthanized, and classified as a TR death unless it was the first death in the group. A death is classified as NTR if there was no evidence that the death is related to treatment side effects and the death occurs more than 14 days after dosing ended. NTR deaths are categorized as NTRa (due to accident or error), NTRu (due to unknown causes), or NTRm (necropsy-confirmed tumor dissemination by invasion and/or metastasis). To conserve animals while providing maximum information, the first death in a group was classified as NTRu; such an NTR death was to be reclassified as TR if two subsequent TR deaths are recorded in the same group.

[2] = test system: NCI-H1993 human non-small cell lung carcinoma xenograft; assay: NCI-H1993 xenograft tumor growth inhibition and tumor growth delay; assay type: in vivo, athymic nude mice; conditions: COMPOUND D 30 mg/kg p.o. qd to end
Source text: In this experiment, the NCI-H1993 human non-small cell lung carcinoma xenograft model is used to assess the anti-tumor efficacy of the PI3K inhibitor COMPOUND D and c-Met inhibitor 2-fluoro-N-methyl-4-[7-quinolin-6-yl-methyl)-imidazo[1,2-b][1,2,4]triazin-2yl]benzamide as single agents or in combination. NCI-H1993 tumor cells obtained from the American Type Culture Collection (ATCC) are derived from a lymph node metastasis of a patient having a stage 3A lung adenocarcinoma and a history of smoking.
(§2) Female athymic nude mice (Crl:NU (Ncr)-Foxn1^nu, Charles River) are 8 weeks old, and have a body weight (BW) range of 16.1-26.2 g, on D1 of the study. The animals are fed ad libitum water (reverse osmosis, 1 ppm CI) and NIH 31 Modified and Irradiated Lab Diet® consisting of 18.0% crude protein, 5.0% crude fat, and 5.0% crude fiber. The mice are housed on irradiated Enrich-O'cobs™ Laboratory Animal Bedding in static microisolators on a 12-hour light cycle at 20-22° C. (68-72° F.) and 40-60% humidity.
The NCI-H1993 tumor line is obtained from the American Type Culture Collection and maintained at DRS_NC in RPMI-1640 medium containing 100 unites/penicillin G sodium, 100 µg/mL streptomycin sulfate, 25 µg/mL gentamicin, 10% fetal bovine serum, and 2 mM glutamine. The tumor cells are cultured in tissue culture flasks in a humidified incubator at 37° C. in an atmosphere of 5% CO2 and 95% air.
The tumor cells used for implementation are harvested during log phase growth and resuspended in cold PBS containing 50% Matrigel™ (BD Biosciences). Each mouse is injected subcutaneously in the right flank with 1×10^7 cells (0.2 mL cell suspension). Tumors are calipered in two dimensions to monitor growth as their mean volume approached the desired 200-250 mm^3 range. Tumor size, in mm^3, was calculated from: Tumor Volume=(width^2×length)/2, where width and length (in mm) are measurements of the tumor. Tumor weight can be estimated with the assumption that 1 mg is equivalent to 1 mm^3 of tumor volume. Fourteen days after tumor cell implantation, on D1 of the study, mice with individual tumor volumes of 172-256 mm^3 are sorted into groups of ten mice, with group mean tumor volumes of 206-215 mm^3.
The c-Met inhibitor 2-fluoro-N-methyl-4-[7-quinolin-6-yl-methyl)-imidazo[1,2-b][1,2,4]triazin-2yl]benzamide (HCl salt, 84.98% free base) is stored at 4° C. and is added to a volume of deionized water equal to 1/2 of the final volume and sonicated until dissolved to obtain a uniform 2× suspension. An equal volume of 0.5% methylcellulose: 0.1% Tween® 80 is added to provide a 1.77 mg/mL solution with final vehicle concentrations of 0.25% methylcellulose and 0.05% Tween® 80 in deionized water (Vehicle 1). Fresh solutions are prepared once daily for the […]. dosing and stored at room temperature until the a.m. dosing.
COMPOUND D is suspended at 3.0 mg/mL in 0.5% methylcellulose in deionized water. The vehicle is added in portions equal to 1/3 of the final volume. The suspension is vortexed after each addition, and then finally probe sonicated on ice to prepare a homogeneous white suspension. A fresh suspension is prepared weekly, stored at 4° C., and re-suspended prior to dosing.
The c-MET inhibitor and the vehicle is each administered via oral gavage (p.o.) twice daily for the duration of the study (b.i.d. to end). COMPOUND D is administered via oral gavage (p.o.) once daily for the duration of the study (qd to end). In combination therapies, COMPOUND D is dosed within 30 minutes after the c-Met inhibitor. In all groups, the dosing volume of 10 mL/kg (0.2 mL/20 g mouse) is scaled to the weight of each animal as determined on the day of dosing, except on weekends when the previous BW is carried forward.
The groups of nude mice (n=10/group) are treated as follows. Group 1 receive Vehicle 1 and Vehicle 2 and serve as controls for the study. […] Group 3 receives 30 mg/kg COMPOUND D monotherapy once daily for the duration of the study (qd to end).

[3] = test system: U-87 MG human glioblastoma xenograft; assay: U-87 MG xenograft tumor growth inhibition and tumor growth delay; assay type: in vivo, nude mice; conditions: temozolomide 100 mg/kg p.o. qd x5
Experimental: In this experiment, the U-87 MG human glioblastoma xenograft model is used to assess the anti-tumor efficacy of the PI3K inhibitor COMPOUND C and c-Met inhibitor 2-fluoro-N-methyl-4-[7-quinolin-6-yl-methyl)-imidazo[1,2-b][1,2,4]triazin-2yl]benzamide as single agents or in combination. U-87 MG tumor cells obtained from the National Cancer Institute are reported to be homozygous for likely oncogenic variants of CDKN2A, CDKN2C, CDKN2a, and PTEN; no mutations are detected in MET, PIK3CA, or 58 other genes that are frequently altered in neoplastic cells; and HGF expressing.
Mice are treated daily for 21 days with 17.7 and 35.3 mg/kg of the c-Met inhibitor and 32.7 mg/kg COMPOUND C monotherapies, and with the c-Met inhibitor/COMPOUND C dual therapy at 17.7:32.7. An c-Met inhibitor/COMPOUND C combination at the 58.8:5.4 mg/kg dose ratio was included in the study. The control mice received both vehicles, and a standard preclinical temozolomide regimen monitored tumor model performance. The oral treatments began on Day 1 (D1) in nude mice with established subcutaneous tumors. Each animal was euthanized when its tumor reached the predetermined 2000 mm3 endpoint volume, or on D60, whichever came first. The study was terminated on D51. […] Overall efficacy was determined from the times required for tumors to progress to the volume endpoint, and from D51 survival and regression rates. This report describes the methods and results of the U87MG-e326 tumor growth delay experiment.
as §2, with “The” for “Female athymic nude mice (Crl:NU (Ncr)-Foxn1^nu, Charles River) are 8 weeks old, and have a body weight (BW) range of 16.1-26.2 g, on D1 of the study. The”
The U-87 MG tumor line is obtained from the American Type Culture Collection and maintained by serial engraftment in nude mice. A tumor fragment (1 mm^3) is implanted subcutaneously into the right flank of each test mouse. Tumors are calipered in two dimensions to monitor growth as their mean volume approached the desired 100-150 mm^3 range. Tumor size, in mm^3, was calculated from: Tumor Volume=(width^2×length)/2, where width and length (in mm) are measurements of the tumor. Tumor weight can be estimated with the assumption that 1 mg is equivalent to 1 mm^3 of tumor volume. Fourteen days after tumor cell implantation, on D1 of the study, mice with individual tumor volumes of 63-196 mm^3 are sorted into seven groups, with group mean tumor volumes of 122-127 mm^3.
The c-Met inhibitor 2-fluoro-N-methyl-4-[7-quinolin-6-yl-methyl)-imidazo[1,2-b][1,2,4]triazin-2yl]benzamide (di-HCl salt, 84.98% free base) is stored at 4° C. and is added to deionized water at 2× the final concentration and sonicated until dissolved. An equal volume of 0.5% methylcellulose and 0.1% Tween® 80 in deionized water is added to provide a 5.884 mg/mL dosing solution in 0.25% methylcellulose and 0.05% Tween® 80 in deionized water (Vehicle 1). Portions of this solution are diluted with Vehicle 1 to provide 3.53 and 1.765 mg/mL dosing solutions.
COMPOUND C (HCl salt, 91.85% free base) is stored at −20° C. and is added to 1% Tween® 80 in deionized water and sonicated to obtain a uniform suspension at 2× the final concentration. […] The 0.544 mg/mL dosing suspension is obtained by diluting a portion of the first suspension with Vehicle 2.

[4] = Toxicity (deaths) in U-87 MG xenograft study; assay type: in vivo; conditions: temozolomide 100 mg/kg p.o. qd x5
Source text: as §1, with “the study. Group mean” for “the study. The maximum group mean body weight (BW) loss is determined for the interval between D1 and D20 as well as for the entire study. Group mean”, “the group had exited the” for “the group have exited the”, “and also excluded any animal” for “and also exclude any animal”, “classified as an NTR death during” for “classified as a non-treatment related (NTR) death during”, “classified as Non-Treatment Related (NTR) if there” for “classified as NTR if there”

SMILES	MaxGI (GImax, combination effectiveness) (NCI-H1573)	MaxGI (GImax, combination effectiveness) (EBC-1)	MaxGI (GImax, combination effectiveness) (HCC2935)	MaxGI (GImax, combination effectiveness) (NCI-H1993)	MaxGI (GImax, combination effectiveness) (NCI-H1648)	Deaths [1]	tolerability (in words) [1]	% TGD [2] [%]	D20 tumor growth inhibition / activity (in words) [2]	T-C [2] [days]	T/C or T/T0 ([2]; D20) [%]	Median TTE ([2]; endpoint 600 mm3) [days]	Regression: PR ([2]; number of animals) [PR]	overall survival (in words) ([2]; vs control Group 1)	% TGD [3] [%]	T/C or T/T0 ([3]; D13) [%]	Median TTE ([3]; endpoint 2000 mm3) [days]	Regress. ([3]; number of animals)	Deaths [4]
Cn1c(=O)n(-c2ccc(C(C)(C)C#N)cc2)c2c3cc(-c4cnc5ccccc5c4)ccc3ncc21 [COMPOUND A, 2-methyl-2-[4-(3-methyl-2-oxo-8-quinolin-3-yl-2,3-dihydro-imidazo[4,5-c]quinolin-1-yl)-phenyl]-propionitrile]	1.90	1.90	1.36	1.33	1.72														
Cc1nc(NC(=O)N2CCC[C@H]2C(N)=O)sc1-c1ccnc(C(C)(C)C(F)(F)F)c1 [COMPOUND D, (S)-Pyrrolidine-1,2-dicarboxylic acid 2-amide 1-({4-methyl-5-[2-(2,2,2-trifluoro-1,1-dimethyl-ethyl)-pyridin-4-yl]-thiazol-2-yl}-amide)]	0.57	1.87	0.77	1.21	1.37	(0)	Well-tolerated	−4	non-significant median tumor growth acceleration; also recorded: not significantly active (inactive)	-1.1	117	24.0	1	non-significantly briefer overall survival than control					
Cn1nnc2c(C(N)=O)ncn2c1=O [Temozolomide, reference compound]															51	48	17.7	0	(0)
